Source: PubChem BioAssay AID2060602 (Molecular Pharmacology Branch, DTP, NCI, 2025)
“And” between values parts separate entries of the source, which are not always exact repeats. Identical values can stand only once.

Test system: 648629-189-R-J1-PDC complex spheroids viability
Assay: Anticancer human tumor 648629-189-R-J1-PDC patient-derived bladder carcinoma cell line growth inhibition [CLK]
Details: for viability, T/C: stronger effect = lower value
Source text: A high-throughput screen of multi-cell type tumor spheroids was designed to identify active combinations of […] and targeted small molecules. Complex spheroids include a stromal component modeled by human endothelial cells (HUVEC) and fibroblasts modeled by human mesenchymal stem cells (MSCs). The concentration ranges selected for each drug and investigational agent were based upon clinically achievable concentrations if the clinical Cmax of the agent was known.
Compounds. The drugs and investigational agents: cirtuvivint (SM08502; NSC835563), CC-671 (NSC850746), vemurafenib (NSC761431), tapotoclax (NSC804041), sotorasib (NSC818433), adagrasib (NSC831453), MRTX-1133 (NSC836407), BAY2416964 (NSC825713), copanlisib (NSC816437), inavolisib (NSC800729), abemaciclib (NSC768073), osimertinib (NSC779217), entinostat (NSC756642), eltanexor (KPT-8602, NSC794443), venetoclax (NSC766270), ceralasertib (NSC777638), bortezomib (NSC756655), olaparib (NSC753686), talazoparib (NSC767125), alisertib (NSC759677), peposertib (NSC802822), gemcitabine (NSC613327), 5-fluorouracil (NSC19893), SN-38 (NSC673596), oxaliplatin (NSC266046), paclitaxel (NSC125973), and doxorubicin (NSC123127), were obtained from the National Cancer Institute (NCI) Developmental Therapeutics Program Chemical Repository. The FDA-approved anticancer drug set is available from the Developmental Therapeutics Program at https://dtp.cancer.gov/organization/dscb/obtaining/available plates.htm. […] The stock solutions were prepared in dimethyl sulfoxide (DMSO, Sigma-Aldrich, St. Louis, MO, cat. D2650), except for the platinum complexes which were prepared in saline (Quality Biological, Gaithersburg, MD, cat. 114-055-101), at 800-fold the tested concentration and stored at -70 degrees C prior to their use. All drugs and investigational agents were tested over a range starting from a high concentration at or near the clinical Cmax and decreasing in half-log increments. If the clinical Cmax for an agent had not been determined, the highest concentration tested was 10 microM.
Cell Culture. All cells were maintained in an incubator at 37 degrees C and 5% CO2 with 95% humidity. The PDC lines were cultured according to standard operating procedures established by the NCI PDMR. Briefly, all PDCs were thawed and cultured in Matrigel-coated flasks prepared with a working solution of 1X Ham's F-12 nutrient mix, without supplementation (Invitrogen, Waltham, MA, cat. 11765054), 100 U/mL penicillin-streptomycin (Invitrogen, cat. 15140122), and 2.5% Matrigel (Corning Inc., Corning, NY, cat. 354248) for the first three passages. The 947758-054-R-J2-PDC line was cultured in 6B/Colon 1A media, which includes advanced DMEM/F-12 (Thermo Fisher Scientific, cat. 12634028), 10 mM HEPES (Thermo Fisher Scientific, cat. 15630080), 1X GlutaMAX supplement (Thermo Fisher Scientific, cat. 35050061), 0.1 mg/mL primocin (InvivoGen, cat. ant-pm-2), 10% defined fetal bovine serum, heat inactivated (HyClone Laboratories Inc., cat. SH30070.03HI), 1.25 mM N-Acetyl-L-cysteine (Sigma-Aldrich, cat. A9165), 10 mM nicotinamide (Sigma-Aldrich, cat. N0636), 1X B-27 supplement (Thermo Fisher Scientific, cat. 17504044), 1X N-2 supplement (Thermo Fisher Scientific, cat. 17502048), and 10 microM Y-27632 dihydrochloride (Tocris Bioscience, cat. 1254). The 876862-298-R-J1-PDC was cultured in 6E media, which includes all 6B/Colon 1A media components plus 50% L-WRN conditioned media (ATCC, cat. CRL-3276), 50 ng/mL recombinant human EGF recombinant protein (hEGF; Thermo Fisher Scientific, cat. PHG0311), 10 ng/mL recombinant human fibroblast growth factor 10 (hGFG-10; PeproTech, cat. 100-26), 1 ng/mL recombinant human fibroblast growth factor 2 (hFGF-2; PeproTech, cat. 100-18B), and 1 µM prostaglandin E2 (PGE2; Tocris, cat. 2296). The 227483-062-R1-J1-PDC line was cultured in Panc media, containing all 6E components except hFGF-2, with the addition of 500 nM SB-431542 (Selleckchem, cat. S1067) and 10 nM gastrin (Tocris, cat. 3006). […]
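Throughout, for viability, T/C: drug exposure lasted seven days before viability readout; 100% = DMSO vehicle control wells.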

SMILES: C=CC(=O)N1CCN(c2nc(=O)n(-c3c(C)ccnc3C(C)C)c3nc(-c4c(O)cccc4F)c(F)cc23)C(C)C1 (centres undefined)
- viability, T/C (compound 0.0316 µM): 84.4% and 97.4%
- viability, T/C (compound 0.1 µM): 95.1% and 95.9%
- viability, T/C (compound 0.316 µM): 99.2% and 102%
- viability, T/C (compound 1 µM): 106% and 98.1%
- viability, T/C (compound 3.16 µM): 104% and 96.5%
- viability, T/C (compound 10 µM): 89.5% and 94.4%
- IC50 (curve of compound): > 10000 nM

SMILES: O=C(c1cc(Cc2n[nH]c(=O)c3ccccc23)ccc1F)N1CCN(C(=O)C2CC2)CC1 + CN1CCN(c2cc(C(=O)Nc3cc4cc(-c5cnn(C)c5)ccc4cn3)ccn2)CC1
- IC50 (curve of first compound, second compound 0.0316 µM): > 10000 nM
- IC50 (curve of first compound, second compound 0.1 µM): > 10000 nM
- IC50 (curve of first compound, second compound 0.316 µM): < 31.6 nM
- IC50 (curve of first compound, second compound 1 µM): < 31.6 nM
- IC50 (curve of first compound, second compound 3.16 µM): < 31.6 nM
- IC50 (curve of first compound, second compound 10 µM): < 31.6 nM
- viability, T/C (second compound 0.0316 µM, first compound 0.0316 µM): 105%
- viability, T/C (second compound 0.0316 µM, first compound 0.1 µM): 106%
- viability, T/C (second compound 0.0316 µM, first compound 0.316 µM): 104%
- viability, T/C (second compound 0.0316 µM, first compound 1 µM): 100%
- viability, T/C (second compound 0.0316 µM, first compound 3.16 µM): 86.5%
- viability, T/C (second compound 0.0316 µM, first compound 10 µM): 72.1%
- viability, T/C (second compound 0.1 µM, first compound 0.0316 µM): 115%
- viability, T/C (second compound 0.1 µM, first compound 0.1 µM): 111%
- viability, T/C (second compound 0.1 µM, first compound 0.316 µM): 110%
- viability, T/C (second compound 0.1 µM, first compound 1 µM): 98%
- viability, T/C (second compound 0.1 µM, first compound 3.16 µM): 84.4%
- viability, T/C (second compound 0.1 µM, first compound 10 µM): 68.2%
- viability, T/C (second compound 0.316 µM, first compound 0.0316 µM): 37.2%
- viability, T/C (second compound 0.316 µM, first compound 0.1 µM): 39.2%
- viability, T/C (second compound 0.316 µM, first compound 0.316 µM): 43.6%
- viability, T/C (second compound 0.316 µM, first compound 1 µM): 46%
- viability, T/C (second compound 0.316 µM, first compound 3.16 µM): 42%
- viability, T/C (second compound 0.316 µM, first compound 10 µM): 32.6%
- viability, T/C (second compound 1 µM, first compound 0.0316 µM): 0.41%
- viability, T/C (second compound 1 µM, first compound 0.1 µM): 0.25%
- viability, T/C (second compound 1 µM, first compound 0.316 µM): 0.62%
- viability, T/C (second compound 1 µM, first compound 1 µM): 0.21%
- viability, T/C (second compound 1 µM, first compound 3.16 µM): 0.92%
- viability, T/C (second compound 1 µM, first compound 10 µM): 1.08%
- viability, T/C (second compound 3.16 µM, first compound 0.0316 µM): 0.08%
- viability, T/C (second compound 3.16 µM, first compound 0.1 µM): 0.44%
- viability, T/C (second compound 3.16 µM, first compound 0.316 µM): 0.12%
- viability, T/C (second compound 3.16 µM, first compound 1 µM): 0.15%
- viability, T/C (second compound 3.16 µM, first compound 3.16 µM): 0.79%
- viability, T/C (second compound 3.16 µM, first compound 10 µM): 0.38%
- viability, T/C (second compound 10 µM, first compound 0.0316 µM): 0.08%
- viability, T/C (second compound 10 µM, first compound 0.1 µM): 0.14%
- viability, T/C (second compound 10 µM, first compound 0.316 µM): 0.72%
- viability, T/C (second compound 10 µM, first compound 1 µM): 0.15%
- viability, T/C (second compound 10 µM, first compound 3.16 µM): 0.23%
- viability, T/C (second compound 10 µM, first compound 10 µM): 0.5%
